Experimental data from PubChem BioAssay (NCI).
Values joined by “and” are separate entries in the source; they are usually repeats but may differ in a detail not shown here. Identical values can stand only once.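 Growth conditions: 96-well plates. Treatment: test compound, 48 hours, 5 concentrations. Analysis: linear interpolation between bracketing concentrations; unreached endpoints set to highest concentration. Here, GI50 denotes the concentration required for 50% inhibition of growth. At the TGI there is no net growth.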

Tests used:
Experiment in all cases: inhibition of tumour cell growth, NCI panel, 48 h
PC-3 prostate = system: PC-3 prostate
NCI-H522 lung = system: NCI-H522 lung
SN12C renal = system: SN12C renal
HOP-62 NSCLC = system: HOP-62 NSCLC
DU-145 prostate = system: DU-145 prostate
SR leukemia = system: SR leukemia
LOX IMVI melanoma = system: LOX IMVI melanoma
BT-549 breast = system: BT-549 breast
COLO 205 colon = system: COLO 205 colon
TK-10 renal = system: TK-10 renal
HCT-116 colon = system: HCT-116 colon
SK-MEL-28 melanoma = system: SK-MEL-28 melanoma
MDA-MB-435 = system: MDA-MB-435
UACC-62 melanoma = system: UACC-62 melanoma
786-0 renal = system: 786-0 renal
M14 melanoma = system: M14 melanoma
OVCAR-3 ovarian = system: OVCAR-3 ovarian
UACC-257 melanoma = system: UACC-257 melanoma
U251 CNS = system: U251 CNS
HOP-92 NSCLC = system: HOP-92 NSCLC
T-47D breast = system: T-47D breast
HCC-2998 colon = system: HCC-2998 colon
HT29 colon = system: HT29 colon
OVCAR-5 ovarian = system: OVCAR-5 ovarian
KM12 colon = system: KM12 colon
HL-60(TB) leukemia = system: HL-60(TB) leukemia
MOLT-4 leukemia = system: MOLT-4 leukemia
CCRF-CEM leukemia = system: CCRF-CEM leukemia
CAKI-1 renal = system: CAKI-1 renal
NCI-H460 lung = system: NCI-H460 lung
ACHN renal = system: ACHN renal
EKVX NSCLC = system: EKVX NSCLC
SF-295 CNS = system: SF-295 CNS
SK-MEL-5 melanoma = system: SK-MEL-5 melanoma
SNB-75 CNS = system: SNB-75 CNS
IGROV1 ovarian = system: IGROV1 ovarian
OVCAR-4 ovarian = system: OVCAR-4 ovarian
MDA-MB-231 breast = system: MDA-MB-231 breast
HCT-15 colon = system: HCT-15 colon
SNB-19 CNS = system: SNB-19 CNS
SK-MEL-2 melanoma = system: SK-MEL-2 melanoma
SK-OV-3 ovarian = system: SK-OV-3 ovarian
OVCAR-8 ovarian = system: OVCAR-8 ovarian
SF-539 CNS = system: SF-539 CNS
NCI-H226 lung = system: NCI-H226 lung
RPMI-8226 leukemia = system: RPMI-8226 leukemia
A498 renal = system: A498 renal
MALME-3M melanoma = system: MALME-3M melanoma
RXF 393 renal = system: RXF 393 renal
MCF7 breast = system: MCF7 breast
SF-268 CNS = system: SF-268 CNS
NCI/ADR-RES ovarian = system: NCI/ADR-RES ovarian
HS 578T breast = system: HS 578T breast
SW-620 colon = system: SW-620 colon
K-562 leukemia = system: K-562 leukemia
NCI-H23 lung = system: NCI-H23 lung
UO-31 renal = system: UO-31 renal
A549 NSCLC = system: A549 NSCLC

Oc1c(Cl)cc(Cl)cc1Sc1cc(Cl)cc(Cl)c1O
GI50 (PC-3 prostate): 3.21 µM and 2.89 µM | TGI (PC-3 prostate): 10.5 µM and 12.9 µM | GI50 (NCI-H522 lung): 2.49 µM | TGI (NCI-H522 lung): 7.03 µM | GI50 (SN12C renal): 3.13 µM and 3.14 µM | TGI (SN12C renal): 13 µM and 11.4 µM | GI50 (HOP-62 NSCLC): 3.37 µM and 2.17 µM | TGI (HOP-62 NSCLC): 14.9 µM and 5.66 µM | GI50 (DU-145 prostate): 5.01 µM and 4.18 µM | TGI (DU-145 prostate): 20.8 µM and 15.5 µM | GI50 (SR leukemia): 3.09 µM and 4.96 µM | TGI (SR leukemia): 13.6 µM and > 100 µM | GI50 (LOX IMVI melanoma): 2.93 µM and 3 µM | TGI (LOX IMVI melanoma): 11.2 µM and 10.8 µM | GI50 (BT-549 breast): 2.81 µM | TGI (BT-549 breast): 8.09 µM | GI50 (COLO 205 colon): 2.22 µM and 1.67 µM | TGI (COLO 205 colon): 5.23 µM and 3.03 µM | GI50 (TK-10 renal): 3.99 µM | TGI (TK-10 renal): 11.6 µM | GI50 (HCT-116 colon): 2.87 µM and 2.44 µM | TGI (HCT-116 colon): 9 µM and 6.51 µM | GI50 (SK-MEL-28 melanoma): 7.01 µM and 4 µM | TGI (SK-MEL-28 melanoma): 21 µM and 14.5 µM | GI50 (MDA-MB-435): 3.42 µM and 2.72 µM | TGI (MDA-MB-435): 12.4 µM and 9 µM | GI50 (UACC-62 melanoma): 3.57 µM and 2.02 µM | TGI (UACC-62 melanoma): 14.1 µM and 5.44 µM | GI50 (786-0 renal): 3.22 µM and 2.83 µM | TGI (786-0 renal): 10.4 µM and 7.85 µM | GI50 (M14 melanoma): 3.88 µM and 4.02 µM | TGI (M14 melanoma): 15.3 µM and 14.5 µM | GI50 (OVCAR-3 ovarian): 3.66 µM and 2.96 µM | TGI (OVCAR-3 ovarian): 11.3 µM and 10.2 µM | GI50 (UACC-257 melanoma): 2.65 µM and 1.94 µM | TGI (UACC-257 melanoma): 7.86 µM and 5.71 µM | GI50 (U251 CNS): 3.01 µM and 2.74 µM | TGI (U251 CNS): 11.2 µM and 10.5 µM | GI50 (HOP-92 NSCLC): 1.65 µM | TGI (HOP-92 NSCLC): 4.47 µM and 4.65 µM | GI50 (T-47D breast): 3.23 µM and 2.45 µM | TGI (T-47D breast): 18 µM and 7.78 µM | GI50 (HCC-2998 colon): 3.7 µM | TGI (HCC-2998 colon): 14.7 µM | GI50 (HT29 colon): 3.71 µM and 2.22 µM | TGI (HT29 colon): 10.9 µM and 6.25 µM | GI50 (OVCAR-5 ovarian): 4.37 µM and 4.04 µM | TGI (OVCAR-5 ovarian): 17.9 µM and 14.2 µM | GI50 (KM12 colon): 3.54 µM and 2.93 µM | TGI (KM12 colon): 10.7 µM and 10.5 µM | GI50 (HL-60(TB) leukemia): 2.88 µM and 2.72 µM | TGI (HL-60(TB) leukemia): 6.5 µM and 7.5 µM | GI50 (MOLT-4 leukemia): 3.8 µM and 2.55 µM | TGI (MOLT-4 leukemia): 11.7 µM and 13.1 µM | GI50 (CCRF-CEM leukemia): 4.32 µM and 2.83 µM | TGI (CCRF-CEM leukemia): 23.4 µM and 25 µM | GI50 (CAKI-1 renal): 2.65 µM and 2.04 µM | TGI (CAKI-1 renal): 9.13 µM and 5.93 µM | GI50 (NCI-H460 lung): 2.98 µM and 2.56 µM | TGI (NCI-H460 lung): 9.91 µM and 8.1 µM | GI50 (ACHN renal): 2.92 µM and 3.27 µM | TGI (ACHN renal): 10.7 µM and 11.3 µM | GI50 (EKVX NSCLC): 3.8 µM and 2.51 µM | TGI (EKVX NSCLC): 14.1 µM and 9.1 µM | GI50 (SF-295 CNS): 2.33 µM and 2.34 µM | TGI (SF-295 CNS): 6.47 µM and 6.51 µM | GI50 (SK-MEL-5 melanoma): 1.84 µM and 1.74 µM | TGI (SK-MEL-5 melanoma): 4.04 µM and 4.03 µM | GI50 (SNB-75 CNS): 3.47 µM and 2.57 µM | TGI (SNB-75 CNS): 14 µM and 7.61 µM | GI50 (IGROV1 ovarian): 6.03 µM and 2.97 µM | TGI (IGROV1 ovarian): 26.2 µM and 15 µM | GI50 (OVCAR-4 ovarian): 3.97 µM and 3.2 µM | TGI (OVCAR-4 ovarian): 14.3 µM and 11.7 µM | GI50 (MDA-MB-231 breast): 2.59 µM and 1.86 µM | TGI (MDA-MB-231 breast): 6.07 µM and 4.34 µM | GI50 (HCT-15 colon): 3.44 µM and 3.06 µM | TGI (HCT-15 colon): 14.8 µM and 12.5 µM | GI50 (SNB-19 CNS): 4.84 µM and 3.23 µM | TGI (SNB-19 CNS): 32.2 µM and 14.2 µM | GI50 (SK-MEL-2 melanoma): 2.62 µM and 1.07 µM | TGI (SK-MEL-2 melanoma): 5.4 µM and 2.91 µM | GI50 (SK-OV-3 ovarian): 2.66 µM | TGI (SK-OV-3 ovarian): 7.04 µM | GI50 (OVCAR-8 ovarian): 3.28 µM and 2.85 µM | TGI (OVCAR-8 ovarian): 12.6 µM and 11.4 µM | GI50 (SF-539 CNS): 3.46 µM and 3.4 µM | TGI (SF-539 CNS): 16.1 µM and 11.8 µM | GI50 (NCI-H226 lung): 3.1 µM and 2.26 µM | TGI (NCI-H226 lung): 15 µM and 6.76 µM | GI50 (RPMI-8226 leukemia): 3.13 µM and 2.49 µM | TGI (RPMI-8226 leukemia): 8.93 µM and 16.8 µM | GI50 (A498 renal): 1.81 µM and 1.87 µM | TGI (A498 renal): 5.52 µM and 5.19 µM | GI50 (MALME-3M melanoma): 3.32 µM and 2.51 µM | TGI (MALME-3M melanoma): 13.7 µM and 6.83 µM | GI50 (RXF 393 renal): 2.84 µM and 2.52 µM | TGI (RXF 393 renal): 8.76 µM and 7.65 µM | GI50 (MCF7 breast): 3.06 µM and 2.88 µM | TGI (MCF7 breast): 10.5 µM and 10.2 µM | GI50 (SF-268 CNS): 4.4 µM and 3.44 µM | TGI (SF-268 CNS): 17.3 µM and 14 µM | GI50 (NCI/ADR-RES ovarian): 2.92 µM and 2.74 µM | TGI (NCI/ADR-RES ovarian): 13.1 µM and 9.29 µM | GI50 (HS 578T breast): 2.47 µM and 2.32 µM | TGI (HS 578T breast): 9.48 µM and 8.31 µM | GI50 (SW-620 colon): 3.32 µM and 3.06 µM | TGI (SW-620 colon): 13.2 µM and 12.5 µM | GI50 (K-562 leukemia): 3.17 µM and 2.91 µM | TGI (K-562 leukemia): 12 µM and 23.5 µM | GI50 (NCI-H23 lung): 2.56 µM and 2.34 µM | TGI (NCI-H23 lung): 10.8 µM and 7.76 µM | GI50 (UO-31 renal): 2.46 µM and 2.02 µM | TGI (UO-31 renal): 11.6 µM and 9.32 µM | GI50 (A549 NSCLC): 3.37 µM and 3.03 µM | TGI (A549 NSCLC): 11.9 µM and 10.6 µM
